Source: US12699084B2, “Method and means for diagnosing a human sepsis” (Julius-Maximilans-Universität Würzburg, priority 2019, dated 2026)
Like-named read-outs stand apart in the source and are kept apart here.

What was measured:
Format in all cases: cell-based, human
[1] = tested on: platelets of sepsis patients; assay: Platelet reactivity by flow cytometry in whole blood (PAC-1 binding, CD62P exposure); details: sepsis patients vs healthy controls, day of ICU admission; CRP-XL 0.01 μg/mL, convulxin 0.01 μg/mL, ADP 5 μM
Method: Platelet reactivity assays are shown at the following time points: I: admission day, II: day 5-7 and III: day of ICU discharge. (S)=sepsis patient; (HC)=healthy control. (A-H) Platelet integrin activation (A, C, E, G) and P-selectin exposure (B, D, F, H) were measured upon stimulation with CRP-XL [0.01 μg/mL](A-D), Convulxin [0.01 μg/ml] (E, F) and ADP [5 μM] (G, H) in whole blood by flow cytometry. […] (I-N) Maximum aggregation is depicted upon stimulation with CRP-XL [0.1 μg/mL] (I, J) rhodocytin [1 nM] (K, L) and TRAP-6 [10 μM] (M, N). […] Graphs show median±IQR. Differences were analyzed by Kruskal-Wallis test (A-N). n.s. non-significant, *p>0.05, **p>0.01, ***p>0.001, ****p>0.0001
Platelet reactivity of healthy controls (HC) and patients with sepsis (S) is depicted upon stimulation with CRP-XL standard dose [0.1 μg/mL in aggregometry; 0.01 μg/mL in flow cytometry] and CRP-XL high dose (CRP-XLhi) [1 μg/mL] (A-B) Platelet activation due to integrin activation indicated through PAC-1 binding (A) or P-selectin exposure (B) was assessed in whole blood by flow cytometry. (C-D) Light transmission aggregometry was performed using washed platelets [500 000 1/μL]. Samples were measured for 5 minutes. […] All graphs show median f IQR. […]

[2] = tested on: platelets of Covid-19 patients
[3] = tested on: platelets (GPVI-mediated platelet reactivity); assay: Platelet-antibiotic co-incubation in whole blood, P-selectin exposure by flow cytometry; details: whole blood of healthy donors, antibiotic at therapeutic peak plasma level, 2 h at 37° C., resting and CRP-XL [0.01 μg/mL] stimulated platelets
Method: Antibiotics were added to whole blood of healthy donors. Incubation was performed for 2 h at 37° C. P-selectin exposure was determined subsequently by flow cytometry on resting (A) and CRP-XL [0.01 μg/mL] stimulated platelets (B). The following drugs were used: piperacillin/tazobactam [P/T=298 μg/mL; 4 μg/mL], vancomycin [V=60 μg/mL], metronidazole [M=25 μg/mL], ciprofloxacin [Cx=4.56 μg/mL].
Whole blood was diluted 1:10 in modified HEPES-buffered Tyrode's solution (NaCl 137 mM, NaHCO312 mM, HEPES 5 mM, KCl 2.7 mM, MgCl2 1 mM, Na2HPO4 0.43 mM, glucose 0.1%, BSA 0.36%). Flow cytometry was conducted using a FACSCelesta™ flow cytometer (Becton Dickinson, Franklin Lakes, NJ, USA). Prior to reactivity measurement, platelets were incubated with respective agonists at indicated concentrations for five minutes. Staining of reticulated platelets was performed using thiazole orange (Sigma Aldrich, St. Louis, MO, USA) for 60 min at room temperature protected from light. After antibody addition samples rested for 15 min in the dark until the reaction was stopped with addition of 1.5 mL FACS-Flow sample buffer (Becton Dickinson).
As all sepsis patients received antibiotic therapy, the present inventors next evaluated whether antimicrobial drugs could reduce GPVI/CLEC-2 reactivity.

[4] = tested on: washed platelets of sepsis patients; assay: Light transmission aggregometry with washed platelets; details: for aggregation at last visit, discharged patients vs patients who died: last available values (discharge/death)
Method: Platelet reactivity assays are shown at the following time points: I: admission day, II: day 5-7 and III: day of ICU discharge. (S)=sepsis patient; (HC)=healthy control. (A-H) Platelet integrin activation (A, C, E, G) and P-selectin exposure (B, D, F, H) were measured upon stimulation with CRP-XL [0.01 μg/mL](A-D), Convulxin [0.01 μg/ml] (E, F) and ADP [5 μM] (G, H) in whole blood by flow cytometry. Representative curves upon CRP-XL stimulation at time point I are shown in A and B. (I-N) Light transmission aggregometry was performed using washed platelets [500 000 1/μL]. (I-N) Maximum aggregation is depicted upon stimulation with CRP-XL [0.1 μg/mL] […] (K, L) and TRAP-6 [10 μM] (M, N). Representative curves are shown in FIG. I, K, M. […] Graphs show median±IQR. Differences were analyzed by Kruskal-Wallis test (A-N). n.s. non-significant, *p>0.05, **p>0.01, ***p>0.001, ****p>0.0001
Platelet reactivity of healthy controls (HC) and patients with sepsis (S) is depicted upon stimulation with CRP-XL standard dose [0.1 μg/mL in aggregometry; 0.01 μg/mL in flow cytometry] and CRP-XL high dose (CRP-XLhi) [1 μg/mL] (A-B) Platelet activation due to integrin activation indicated through PAC-1 binding (A) or P-selectin exposure (B) was assessed in whole blood by flow cytometry. (C-D) Light transmission aggregometry was performed using washed platelets [500 000 1/μL]. Samples were measured for 5 minutes. Representative curves are shown in C. (D-E) Platelets were lysed after 5 minutes of CRP-XL stimulation or resting conditions. Staining was performed with phospho-tyrosine antibody 4g10. 72 kDa band intensity was set in relation to a housekeeping protein in arbitrary units (AU). All graphs show median f IQR.
(A) Light transmission aggregometry was performed using washed platelets [500 000 1/μL]. Maximum aggregation is depicted upon stimulation with CRP-XL (C) [0.1 μg/mL] and TRAP-6 [5 μM](T). (B) mean platelet volume. (C) Reticulated platelets indicated as thiazole orange (TO) positive fraction were assessed by flow cytometry. (D) GPVI-ectodomain plasma-levels measured by ELISA. (E) Platelet count. (F) SOFA-Score. All graphs show median f IQR. Differences were analyzed using Kolmogorov-Smirnov test. n.s. non-significant, *p>0.05, **p>0.01,
After centrifugation of whole blood at 152 g for 20 min, platelet rich plasma (PRP) was separated and incubated in acetylsalicylic acid (ASS) for 30 min (final concentration 2 μM). Prostaglandine E1 (1 μM) and apyrase (2 U/mL) were added and platelets were washed with modified HEPES-buffered Tyrode's solution once (1000 g, 10 min). PPP was cryopreserved for further investigation. Afterwards platelet count was adjusted to 500 000 1/μL through resuspension in re-calcified Hepes buffered Tyrode's solution (CaCl2) 2 mM). Light transmission aggregometry was performed using an APACT 4S (LABiTec, Ahrensburg, Germany) aggregometer at 37° C. stirring conditions. Maximum aggregation was assessed in percent in relation to re-calcified Hepes buffered Tyrode's solution as blank. For further molecular analysis platelets were lysed through addition of ice-cold 2× lysis buffer (NaCl150 mM, HEPES 15 mM, EGTA10 mM, Triton X-100 2%, Na3VO4 2 mM, PMSF 1 mM, Aprotinin A 1 mM, Leupeptin 1 mM, Pepstatin 1 mM).

[5] = tested on: washed platelets; assay: Immunoblot of global tyrosine phosphorylation (4G10) in platelet lysates; details: 0.1 μg/mL CRP-XL or 10 nM rhodocytin
Method: Washed platelets [500 000 1/μL] of healthy controls (HC) and patients (S) were stimulated with CRP-XL (C) and rhodocytin (R). Lysis was done at the following time points: C: 5 min, R: 10 min. I: admission day, II: day 5-7 and III: day of ICU discharge. (A-C) Western Blot analysis of platelet lysates. Staining was performed with anti-phospho-tyrosine antibody 4g10. 72 kDa band intensity was set in relation to signal intensity of Syk or GAPDH in arbitrary units (AU). Representative blots are shown in figures A (time point I) and B (time point III). (D-F) Phosphorylation of signaling peptides Syk and Lat was investigated by Western blot. One representative blot is shown in D. (G-J) Phosphorylation analysis of ITIM-signaling associated phosphatases SHP-1 and SHP-2. Phospho-protein intensity was set in relation to intensity of unphosphorylated protein shown in H and J. Representative Western blots are shown in G and I. All graphs display median f IQR.
After centrifugation of whole blood at 152 g for 20 min, platelet rich plasma (PRP) was separated and incubated in acetylsalicylic acid (ASS) for 30 min (final concentration 2 μM). Prostaglandine E1 (1 μM) and apyrase (2 U/mL) were added and platelets were washed with modified HEPES-buffered Tyrode's solution once (1000 g, 10 min). […] Maximum aggregation was assessed in percent in relation to re-calcified Hepes buffered Tyrode's solution as blank. […]

Nc1ncnc2c1ncn2[C@@H]1O[C@H](COP(=O)(O)OP(=O)(O)O)[C@@H](O)[C@H]1O [ADP]
platelet activation (PAC-1 binding, CD62P exposure) upon stimulation [1]: platelet reactivity was also highly impaired | platelet reactivity upon stimulation ([2]; 19 critically-ill Covid-19 patients, 14 days at ICU): global hyporeactivity

O=C(O)c1cn(C2CC2)c2cc(N3CCNCC3)c(F)cc2c1=O [ciprofloxacin]
impact on GPVI-mediated platelet reactivity (P-selectin exposure) [3]: none of these drugs had an impact on GPVI-mediated platelet reactivity

Cc1ncc([N+](=O)[O-])n1CCO [metronidazole]
impact on GPVI-mediated platelet reactivity (P-selectin exposure) [3]: none of these drugs had an impact on GPVI-mediated platelet reactivity

CN[C@H](CC(C)C)C(=O)N[C@H]1C(=O)N[C@@H](CC(N)=O)C(=O)N[C@H]2C(=O)N[C@H]3C(=O)N[C@H](C(=O)N[C@H](C(=O)O)c4cc(O)cc(O)c4-c4cc3ccc4O)[C@H](O)c3ccc(c(Cl)c3)Oc3cc2cc(c3O[C@@H]2O[C@H](CO)[C@@H](O)[C@H](O)[C@H]2O[C@H]2C[C@](C)(N)[C@H](O)[C@H](C)O2)Oc2ccc(cc2Cl)[C@H]1O [vancomycin]
impact on GPVI-mediated platelet reactivity (P-selectin exposure) [3]: none of these drugs had an impact on GPVI-mediated platelet reactivity

TRAP-6
aggregation at last visit, discharged patients vs patients who died ([4]; sepsis patients): no differences | aggregation potential, mean ([4]; sepsis platelets, day of ICU admission, 10 μM TRAP-6): 34.2% | aggregation potential, minimum ([4]; sepsis platelets, day of ICU admission, 10 μM TRAP-6, every studied patient): ≥ 21.2% | platelet reactivity upon stimulation [2]: global hyporeactivity

piperacillin/tazobactam
impact on GPVI-mediated platelet reactivity (P-selectin exposure) [3]: none of these drugs had an impact on GPVI-mediated platelet reactivity

B1: convulxin (protein)
chain 1: GLHCPSDWYYYDQHCYRIFNEEMNWEDAEWFCTKQAKGAHLVSIKSAKEADFVAWMVTQNIEESFSHVSIGLRVQNKEKQCSTKWSDGSSVSYDNLLDLYITKCSLLKKETGFRKWFVASCIGKIPFVCKFPPQC
chain 2: GFCCPSHWSSYDRYCYKVFKQEMTWADAEKFCTQQHTGSHLVSFHSTEEVDFVVKMTHQSLKSTFFWIGANNIWNKCNWQWSDGTKPEYKEWHEEFECLISRTFDNQWLSAPCSDTYSFVCKFEA
platelet activation (PAC-1 binding, CD62P exposure) upon stimulation [1]: impaired platelet activation was still evident, albeit to a lesser extent compared to CRP-XL

B2: rhodocytin: selective CLEC-2 agonist (protein)
chain 1: GLEDCDFGWSPYDQHCYQAFNEQKTWDEAEKFCRAQENGAHLASIESNGEADFVSWLISQKDELADEDYVWIGLRAQNKEQQCSSEWSDGSSVSYENLIDLHTKKCGALEKLTGFRKWVNYYCEQMHAFVCKLLPY
chain 2: DCPSGWSSYEGHCYKPFNEPKNWADAERFCKLQPKHSHLVSFQSAEEADFVVKLTRPRLKANLVWMGLSNIWHGCNWQWSDGARLNYKDWQEQSECLAFRGVHTEWLNMDCSSTCSFVCKFKA
platelet aggregation upon stimulation ([4]; sepsis patients vs healthy controls, time point I, CRP-XL 0.1 μg/ml, rhodocytin 10 nM): abolished aggregation was found in 5/8 patients | aggregation at last visit, discharged patients vs patients who died ([4]; sepsis patients): no differences | maximum aggregation, recovery at discharge ([4]; sepsis patients, time point III (discharge from ICU), CRP-XL 0.1 μg/ml, rhodocytin): completely recovered | induction of tyrosine phosphorylation (pTyr bands) ([5]; platelets of healthy donors): readily inducible in healthy donors | induction of tyrosine phosphorylation (pTyr bands) ([5]; platelets of sepsis patients): tyrosine phosphorylation was not inducible in platelets of sepsis patients
